Measured values reported in patent EP0745595A1, “3-(3-Aryloxyphenyl)-1-(substituted methyl)-s-triazine-2,4,6-oxo or thiotrione herbicidal agents” (American Cyanamid Company, priority 1995, dated 1996).

Legend:
Type in all cases: in vivo
ECHINOCHLOA CRUS-GALLI = test: Preemergence evaluation in the presence of transplanted rice under flooded paddy conditions (Example 43), ECHCG (Barnyard Grass); parameters: key: visual rating on a 0-9 scale, compared with control; settings: applied three days after sowing, 25 to 30 days after treatment
Experimental: (§1) Results of herbicide evaluation are expressed on a rating scale (0-9). The scale is based upon a visual observation of plant stand, vigor, malformation, size, chlorosis and overall plant appearance as compared with a control.
(§2) In this example, Deluvian paddy soil (Toyokawa paddy soil) is placed in plastic pots, 100cm^2 x 9 cm in depth. Water is added to the level of the soil surface in the pot and the mixture is paddled 3 cm in depth.
(§3) Pots are then variously sown with monocotyledenous weed seeds and tubers at 0-2 cm in soil depth, as well as transplanted rice plants at the 2.5 leaf stage. The rice plants are transplanted at about 3 cm soil depth. Water is then added to all of the pots to 3 cm deep and kept at a depth of 3 cm for the duration of the test. Test compounds are applied in the manner described in Example 42 three days after transplanting the rice plants and sowing the weed seeds and tubers. The pots are then placed on greenhouse benches and cared for in the conventional manner. Tests are examined at 25 to 30 days after treatment and rated according to the rating system provided in Example 40. The compounds evaluated are reported by compound number given in Example 40.

SCIRPUS JUNCOIDES = test: Preemergence evaluation in the presence of transplanted rice under flooded paddy conditions (Example 43), SCPJU (Bulrush, Japanese); parameters: key: visual rating on a 0-9 scale, compared with control; settings: applied three days after sowing, 25 to 30 days after treatment
Experimental: as §1, §2, §3

SAGITTARIA PYGMAEA = test: Preemergence evaluation in the presence of transplanted rice under flooded paddy conditions (Example 43), SAGPY (Arrowhead (Pygmaea)); parameters: key: visual rating on a 0-9 scale, compared with control; settings: applied three days after sowing, 25 to 30 days after treatment
Experimental: as §1, §2, §3

CYPERUS DIFFORMIS = test: Preemergence evaluation in the presence of transplanted rice under flooded paddy conditions (Example 43), CYPDI (Flatsedge, smallflower); parameters: key: visual rating on a 0-9 scale, compared with control; settings: applied three days after sowing, 25 to 30 days after treatment
Experimental: as §1, §2, §3

[1] = tested on: ORYZA SATIVA, L. CV. KOSHIHIKARI; test: Post-transplant rice evaluation under flooded paddy conditions (Example 43), ORYSAK (Rice, Koshihikari); parameters: key: visual rating on a 0-9 scale, compared with control; settings: applied three days after transplanting rice, 25 to 30 days after treatment
Experimental: as §1, §2, §3

CYPERUS SEROTINUS = test: Preemergence evaluation in the presence of transplanted rice under flooded paddy conditions (Example 43), CYPSE (Flatsedge, perennial); parameters: key: 0-9 visual rating scale vs. untreated control; settings: applied three days after sowing, 25 to 30 days after treatment
Experimental: as §1, §2, §3

[…] = Preemergence evaluation in the presence of transplanted rice under flooded paddy conditions (Example 43), MOOVA (Monochoria); settings: applied three days after sowing, 25 to 30 days after treatment
Experimental: as §1, §2, §3

SMILES	Herbicidal effect rating, ECHCG (ECHINOCHLOA CRUS-GALLI; 0.025 kg/ha)	Herbicidal effect rating, ECHCG (ECHINOCHLOA CRUS-GALLI; 0.050 kg/ha)	Herbicidal effect rating, ECHCG (ECHINOCHLOA CRUS-GALLI; 0.100 kg/ha)	Herbicidal effect rating, ECHCG (ECHINOCHLOA CRUS-GALLI; 0.250 kg/ha)	Herbicidal effect rating, SCPJU (SCIRPUS JUNCOIDES; 0.025 kg/ha)	Herbicidal effect rating, SCPJU (SCIRPUS JUNCOIDES; 0.050 kg/ha)	Herbicidal effect rating, SCPJU (SCIRPUS JUNCOIDES; 0.100 kg/ha)	Herbicidal effect rating, SCPJU (SCIRPUS JUNCOIDES; 0.250 kg/ha)	Herbicidal effect rating, SAGPY (SAGITTARIA PYGMAEA; 0.025 kg/ha)	Herbicidal effect rating, SAGPY (SAGITTARIA PYGMAEA; 0.050 kg/ha)	Herbicidal effect rating, SAGPY (SAGITTARIA PYGMAEA; 0.100 kg/ha)	Herbicidal effect rating, SAGPY (SAGITTARIA PYGMAEA; 0.250 kg/ha)	Herbicidal effect rating, CYPDI (CYPERUS DIFFORMIS; 0.025 kg/ha)	Herbicidal effect rating, CYPDI (CYPERUS DIFFORMIS; 0.050 kg/ha)	Herbicidal effect rating, CYPDI (CYPERUS DIFFORMIS; 0.100 kg/ha)	Herbicidal effect rating, CYPDI (CYPERUS DIFFORMIS; 0.250 kg/ha)	Herbicidal effect rating, ORYSAK ([1]; 0.025 kg/ha)	Herbicidal effect rating, ORYSAK ([1]; 0.050 kg/ha)	Herbicidal effect rating, ORYSAK ([1]; 0.100 kg/ha)	Herbicidal effect rating, ORYSAK ([1]; 0.250 kg/ha)	other results
COC(=O)Cn1c(=O)n(C)c(=O)n(-c2cc(Oc3c(F)cc(C(F)(F)F)cc3Cl)ccc2Br)c1=O [Compound 2, Methyl 3-{2-bromo-5-[(2-chloro-α,α,α,6-tetrafluoro-p-tolyl)oxy]phenyl}tetrahydro-5-methyl-2,4,6-trioxo-s-triazine-1(2H)-acetate]	9.0	9.0	9.0	9.0	8.0	9.0	9.0	9.0	3.0	7.0	9.0	9.0	9.0	9.0	9.0	9.0	1.0	3.0	5.0	9.0	Herbicidal effect rating, CYPSE (CYPERUS SEROTINUS; 0.025 kg/ha): 4.0; Herbicidal effect rating, CYPSE (CYPERUS SEROTINUS; 0.050 kg/ha): 7.0; Herbicidal effect rating, CYPSE (CYPERUS SEROTINUS; 0.100 kg/ha): 9.0; Herbicidal effect rating, CYPSE (CYPERUS SEROTINUS; 0.250 kg/ha): 9.0; Herbicidal effect rating, MOOVA ([…]; 0.025 kg/ha): 9.0; Herbicidal effect rating, MOOVA ([…]; 0.050 kg/ha): 9.0; Herbicidal effect rating, MOOVA ([…]; 0.100 kg/ha): 9.0; Herbicidal effect rating, MOOVA ([…]; 0.250 kg/ha): 9.0
COC(=O)Cn1c(=O)n(C)c(=O)n(-c2cc(Oc3ccc(C(F)(F)F)cc3Cl)ccc2[N+](=O)[O-])c1=O [Compound 3, Methyl 3-{5-[(2-chloro-α,α,α-trifluoro-p-tolyl)oxy]-2-nitrophenyl}tetrahydro-5-methyl-2,4,6-trioxo-s-triazine-1(2H)-acetate]	8.0	9.0	9.0	9.0	5.0	7.0	9.0	9.0	0.0	0.0	1.0	3.0	5.0	8.0	9.0	9.0	0.0	1.0	5.0	8.0	Herbicidal effect rating, CYPSE (CYPERUS SEROTINUS; 0.025 kg/ha): 0.0; Herbicidal effect rating, CYPSE (CYPERUS SEROTINUS; 0.050 kg/ha): 5.0; Herbicidal effect rating, CYPSE (CYPERUS SEROTINUS; 0.100 kg/ha): 8.0; Herbicidal effect rating, CYPSE (CYPERUS SEROTINUS; 0.250 kg/ha): 9.0; Herbicidal effect rating, MOOVA ([…]; 0.025 kg/ha): 3.0; Herbicidal effect rating, MOOVA ([…]; 0.050 kg/ha): 5.0; Herbicidal effect rating, MOOVA ([…]; 0.100 kg/ha): 7.0; Herbicidal effect rating, MOOVA ([…]; 0.250 kg/ha): 9.0
